What was measured:
[1] = test system: MKN-45 cells; assay: Inhibition of MKN-45 proliferation (MTT); type: cell-based, human; conditions: for Inhibition (% Inhibition of MKN-45 proliferation) / inhibition at 0.1 µM: 0.1 μM
Outline: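 Viability measured by MTT dye reduction on day 5 after compound addition on day 2 to MKN-45 gastric adenocarcinoma cells (high Met expression) seeded on day 1 in complete medium.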

[2] = target: T1, c-Met (Homo sapiens, UniProt P08581); assay: Inhibition of c-Met kinase phosphorylation in MKN-45 cells (cell based ELISA); set-up: endogenous in cells; host or cells: MKN-45; conditions: 1 h
T1 sequence (P08581 25-1390): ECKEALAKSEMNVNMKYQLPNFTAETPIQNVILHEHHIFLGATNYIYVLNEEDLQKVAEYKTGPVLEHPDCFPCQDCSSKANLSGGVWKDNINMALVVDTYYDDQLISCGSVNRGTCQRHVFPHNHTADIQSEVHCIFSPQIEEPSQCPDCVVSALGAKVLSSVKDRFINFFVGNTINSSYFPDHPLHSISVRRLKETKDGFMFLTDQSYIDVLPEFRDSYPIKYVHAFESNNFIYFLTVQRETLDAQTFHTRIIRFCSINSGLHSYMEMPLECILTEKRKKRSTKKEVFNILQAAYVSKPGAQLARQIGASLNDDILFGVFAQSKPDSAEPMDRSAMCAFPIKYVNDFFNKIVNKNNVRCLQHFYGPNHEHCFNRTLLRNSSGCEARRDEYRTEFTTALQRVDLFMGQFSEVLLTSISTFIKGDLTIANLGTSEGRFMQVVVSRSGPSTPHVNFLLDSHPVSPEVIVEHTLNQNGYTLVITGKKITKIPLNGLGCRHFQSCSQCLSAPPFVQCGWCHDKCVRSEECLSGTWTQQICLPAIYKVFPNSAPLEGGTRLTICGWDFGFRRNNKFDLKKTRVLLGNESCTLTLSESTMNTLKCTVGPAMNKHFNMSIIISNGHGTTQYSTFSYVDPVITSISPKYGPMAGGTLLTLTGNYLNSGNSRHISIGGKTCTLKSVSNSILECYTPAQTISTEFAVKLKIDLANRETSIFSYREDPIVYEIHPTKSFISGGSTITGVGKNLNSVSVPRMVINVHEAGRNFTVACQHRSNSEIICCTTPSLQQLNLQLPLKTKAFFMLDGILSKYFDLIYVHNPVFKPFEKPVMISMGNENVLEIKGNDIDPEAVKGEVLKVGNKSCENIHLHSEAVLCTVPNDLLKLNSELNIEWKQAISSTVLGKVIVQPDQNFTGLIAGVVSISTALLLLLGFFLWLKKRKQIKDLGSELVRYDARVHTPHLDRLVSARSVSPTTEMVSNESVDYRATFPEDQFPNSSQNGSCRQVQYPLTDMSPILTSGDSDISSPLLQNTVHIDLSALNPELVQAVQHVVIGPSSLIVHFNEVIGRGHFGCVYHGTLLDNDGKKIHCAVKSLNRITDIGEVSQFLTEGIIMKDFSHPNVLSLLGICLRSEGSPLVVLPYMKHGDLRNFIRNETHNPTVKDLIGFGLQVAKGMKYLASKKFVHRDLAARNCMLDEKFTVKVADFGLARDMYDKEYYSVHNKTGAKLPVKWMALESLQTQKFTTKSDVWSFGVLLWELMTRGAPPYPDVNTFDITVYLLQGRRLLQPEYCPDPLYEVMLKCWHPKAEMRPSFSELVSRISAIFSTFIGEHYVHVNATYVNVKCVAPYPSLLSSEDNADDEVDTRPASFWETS
Method: Inhibition of c-Met Kinase Phosphorylation in MKN-45 Cells:
MKN45 cells are a prototype of “c-Met addicted” cells having constitutively activated c-Met kinase similar to that observed in sub-sects of gastric or hepatocellular cancer patients with dysregulated c-Met kinase activity. Inhibition of Met phosphorylation was determined using a cell based ELISA assay according to the following schedule:
Day 1: MKN-45 cells were plated in 96-well plates in complete growth medium.
Day 2: Inhibitors at the desired concentration were added to the plates and incubated for 1 h and lysed subsequently.
Lysates were transferred to NUNC Maxisorp plates coated with anti-cMet receptor antibody. Phopho-tyrosine mAb and HRP-lined anti-mouse IgG were used as primary and secondary antibodies respectively. Optical density was measured on a microplate reader (BMG Labtech., Germany) at […]. Inhibition of c-Met phosphorylation in this cell line indicates a therapeutic potential for test compounds in patients diagnosed with cancers caused by aberrant c-Met kinase signalling.

[3] = target: T1, c-Met; assay: Inhibition of c-Met kinase phosphorylation in NCI-H441 cells (cell based ELISA); set-up: endogenous in cells; host or cells: NCI-H441; conditions: 1 h
Method: Inhibition of c-Met Kinase Phosphorylation in NCI—H441 Cells:
Inhibition of Met phosphorylation was determined using a cell based ELISA assay according to the following schedule:
Day 1: NCI—H441 cells were plated in 96-well plates in complete growth medium.
Day 2: Inhibitors at the desired concentration were added to the plates, incubated for 1 h and lysed subsequently. Lysates were transferred to NUNC Maxisorp plates coated with anti-cMet receptor antibody. Phopho-tyrosine mAb and HRP-lined anti-mouse IgG were used as primary and secondary antibodies respectively. Optical density was measured on a microplate reader (BMG Labtech., Germany) at […].

[4] = target: T2, Met kinase (Homo sapiens, UniProt P08581); assay: MET kinase assay (colorimetric determination of c-Met kinase activity, HTScan Met Kinase Assay Kit); type: biochemical; set-up: purchased Cell Signalling Technology, Beverly, Mass; conditions: for IC50: c-Met kinase
T2 sequence (P08581 25-1390): as above
Description: 1. MET Kinase Assay Protocol:
Colorimetric Determination of c-Met Kinase Activity
The receptor tyrosine kinase c-Met is a heterodimeric transmembrane glycoprotein involved in several cellular processes that aid in tumor progression. Phosphorylation of the tyrosine residues in the c-Met kinase domain is critical for its activity and the resulting down-stream effects. The colorimetric assay allows detection of the phosphorylated form of a biotinylated peptide upon activation of human recombinant Met kinase.
MET Kinase Assay Protocol:
c-Met Kinase activity shall be determined using an HTScan® Met Kinase Assay Kit (Cell Signalling Technology, Beverly, Mass.) with modifications. All incubations are carried out at room temperature. Briefly, 12.5 μl of a 4× reaction cocktail (DTT/Kinase buffer containing appropriate quantity of human Met kinase) is added to each well of a 96-well plate containing 12.5 μl pre-diluted compound of interest and incubated for 5 minutes. After the initial incubation, 25 μl/well of 2×ATP/biotinylated peptide is added and incubated for an additional 30 minutes. The reaction is terminated by the addition of 50 μl/well stop buffer (50 mM EDTA, pH 8.0). The reaction mixture (25 μl/well) is then transferred to a streptavidin coated plate (Perkin Elmer, Cat#4009-0010) containing 75 μl dH2O and incubated for 60 minutes. The plate is washed with 200 μl/well wash buffer (1×PBS, 0.05% Tween-20). After washing, 100 μl/well phospho-tyrosine mAb (1:1000 in wash buffer containing 1% BSA) is added and incubated for 60 minutes. After another round of washes, 100 μl/well europium labelled anti-mouse IgG (1:500 in wash buffer containing 1% BSA) is added and incubated for an additional 30 minutes. Following additional washes, 100 μl/well Delfia® enhancement solution (Perkin Elmer, Cat#1244-105) is added and incubated for 45 minutes. Florescence is measured on a microplate reader (BMG Labtech., Germany) at 340 nm (excitation) and 615 nm (emission) for calculating % inhibition. Data generated can be analyzed further using Graphpad Prism (Graphpad software, San Diego Calif.) for determination of IC50.

[5] = test system: Akt; assay: Inhibition of Akt phosphorylation in MKN-45 cells (western blot, pAkt S473); type: cell-based; conditions: Homo sapiens
Method: (§1) Inhibition of Akt Phosphorylation in MKN-45 or NCI-11441 Cells:
(§2) Akt is a serine-threonine kinase and a downstream marker regulated by c-Met kinase via the PI3K pathway. Once phosphorylated, Akt regulates several end processes including cell survival and growth. Cells were treated with 0−1000 nM of test compounds, lysed, and the proteins separated on a 10% SDS-PAGE. Following separation, proteins were transferred onto a nitrocellulose membrane and detected by chemiluminescence after incubation with pAkt S473 mAb (primary) and rabbit anti-mouse Ab (secondary). Intensity of the bands was determined using ImageJ 1.42q (NIH, USA) and normalized to Actin (loading control).

[6] = test system: Akt; assay: Inhibition of Akt phosphorylation in NCI-H441 cells (western blot, pAkt S473); type: cell-based; conditions: Homo sapiens
Method: as §1, §2

[7] = test system: MKN-45 cells; assay: Induction of apoptosis in MKN-45 cells (caspase-3 activity); type: cell-based, human; conditions: @ 3 μM, 24 h, caspase-3, percent of maximum response
Method: 6. Induction of Apoptosis in MKN-45 Cells:
Induction of Caspase 3 was measured fluorimetrically. Cells were incubated with desired concentrations of the compound for 24 h. After incubation, cells were harvested and counted. An equal number of viable cells per well (0.3×10^6 cells) were used for determination of caspase-3 activity. Increase in apoptosis manifested by an elevation in caspase-3 levels was determined using a Caspase-3 kit from Millipore. Data are expressed as a percent of the maximum response (100%).

[8] = target: T2, Met kinase; assay: Inhibition of HGF-induced Met phosphorylation in MDA-MB-231 cells; type: cell-based; set-up: endogenous in cells; host or cells: MDA-MB-231; conditions: HGF 50 ng/ml, read-out: HGF stimulated Met phosphorylation (IC50)
[9] = Homo sapiens, MKN-45, MKN-45 proliferation

| SMILES | GI50 [1, 9] | melting point | IC50 [2] | IC50 [3] | inhibition at 1 µM [4] | IC50 [4] | IC50 [5] | IC50 [6] | IC50 [8] | Apoptosis in MKN-45 cells (percentage induction) [7] | Inhibition (% Inhibition of MKN-45 proliferation) ([1]; MKN-45 proliferation) | inhibition at 0.1 µM [1, 9] | % inhibition @ 1 uM ([1]; MKN-45 proliferation, 1 μM) | inhibition at 1 µM ([1]; Homo sapiens, MKN-45, MKN-45 proliferation, 1 μM) |
| --- | --- | --- | --- | --- | --- | --- | --- | --- | --- | --- | --- | --- | --- | --- |
| CNC(=O)c1ccc(-c2ccc3nnn(Cc4ccc5ncccc5c4)c3n2)cc1F [Ex 14, 2-Fluoro-N-methyl-4-(3-(quinolin-6-ylmethyl)-3H-[1,2,3]triazolo[4,5-b]pyridin-5-yl)benzamide] | 50 to 150 nM | 212 to 214 °C | 50 to 150 nM | 10 to 50 nM | 75 to 100% | 100 to 250 nM |  |  |  |  |  |  |  |  |
| NC(=O)c1ccc(-c2ccc3nnn(Cc4ccc5ncccc5c4)c3n2)cc1F [Ex 15, 2-Fluoro-4-(3-(quinolin-6-ylmethyl)-3H-[1,2,3]triazolo[4,5-b]pyridin-5-yl)benzamide] | 50 to 150 nM | 198 to 200 °C | 50 to 150 nM | 10 to 50 nM | 75 to 100% | 50 to 100 nM | 100 to 200 nM | ≤ 25 nM | ≤ 10 nM | A (A = >50 to 100%) |  |  |  |  |
| Cl.NC(=O)c1c(F)cc(-c2ccc3nnn(Cc4ccc5ncccc5c4)c3n2)cc1F [Ex 139, 2,6-Difluoro-4-(3-(quinolin-6-ylmethyl)-3H-[1,2,3]triazolo[4,5-b]pyridin-5-yl)benzamide hydrochloride] |  |  |  | ≤ 10 nM |  |  |  |  |  |  | B (B = ≥50-<75%) |  |  | < 25% |
| OCCn1cc(-c2ccc3nnn(Cc4ccc5ncccc5c4)c3n2)cn1 [Ex 146, 2-(4-(3-(Quinolin-6-ylmethyl)-3H-[1,2,3]triazolo[4,5-b]pyridin-5-yl)-1H-pyrazol-1-yl)ethanol] | 50 to 150 nM |  | 50 to 150 nM | 50 to 100 nM |  |  |  | 25 to 50 nM |  |  |  |  |  |  |

Second part, led by results:

| GI50 [1, 9] | melting point | IC50 [2] | IC50 [3] | inhibition at 1 µM [4] | IC50 [4] | IC50 [5] | IC50 [6] | IC50 [8] | SMILES | Apoptosis in MKN-45 cells (percentage induction) [7] | Inhibition (% Inhibition of MKN-45 proliferation) ([1]; MKN-45 proliferation) | inhibition at 0.1 µM [1, 9] | % inhibition @ 1 uM ([1]; MKN-45 proliferation, 1 μM) | inhibition at 1 µM ([1]; Homo sapiens, MKN-45, MKN-45 proliferation, 1 μM) |
| --- | --- | --- | --- | --- | --- | --- | --- | --- | --- | --- | --- | --- | --- | --- |
| ≤ 50 nM | 265 to 267 °C | ≤ 50 nM | ≤ 10 nM | 75 to 100% | ≤ 50 nM | 50 to 100 nM | ≤ 25 nM |  | O=C(Nc1nc[nH]n1)c1ccc(-c2ccc3nnn(Cc4ccc5ncccc5c4)c3n2)cc1F [Ex 52, 2-Fluoro-4-(3-(quinolin-6-ylmethyl)-3H-[1,2,3]triazolo[4,5-b]pyridin-5-yl)-N-(1H-1,2,4-triazol-3-yl)benzamide] | A (A = >50 to 100%) | D (D = <25%) |  |  |  |
| ≤ 50 nM | 212 to 215 °C | ≤ 50 nM | ≤ 10 nM | 75 to 100% | ≤ 50 nM | ≤ 25 nM | ≤ 25 nM | ≤ 10 nM | NC(=O)c1ccc(-c2ccc3nnn(Cc4ccc5ncccc5c4)c3n2)cc1Cl [Ex 108, 2-Chloro-4-(3-(quinolin-6-ylmethyl)-3H-[1,2,3]triazolo[4,5-b]pyridin-5-yl)benzamide] | A (A = >50 to 100%) |  | 50 to 75% |  |  |
| ≤ 50 nM |  | ≤ 50 nM |  | 75 to 100% | ≤ 50 nM | 50 to 100 nM | 25 to 50 nM | ≤ 10 nM | NC(=O)c1c(F)cc(-c2ccc3nnn(Cc4ccc5ncccc5c4)c3n2)cc1F [Ex 130, 2,6-Difluoro-4-(3-(quinolin-6-ylmethyl)-3H-[1,2,3]triazolo[4,5-b]pyridin-5-yl)benzamide] | B (B = ≤50) | A (A = ≥75 to 100%) |  |  |  |
| ≤ 50 nM |  | ≤ 50 nM | ≤ 10 nM | 75 to 100% | ≤ 50 nM | ≤ 25 nM | ≤ 25 nM | 10 to 50 nM | NC(=O)c1ccc(-c2ccc3nnn(Cc4cc5cccnc5cc4F)c3n2)cc1Cl [Ex 134, 2-Chloro-4-(3-((7-fluoroquinolin-6-yl)methyl)-3H-[1,2,3]triazolo[4,5-b]pyridin-5-yl)benzamide] | A (A = >50 to 100%) |  | 50 to 75% |  |  |
| ≤ 50 nM |  | ≤ 50 nM | ≤ 10 nM | 75 to 100% | ≤ 50 nM |  |  |  | NC(=O)c1ccc(-c2ccc3nnn(Cc4cc5cccnc5cc4F)c3n2)cc1F [Ex 137, 2-Fluoro-4-(3-((7-fluoroquinolin-6-yl)methyl)-3H-[1,2,3]triazolo[4,5-b]pyridin-5-yl)benzamide] |  |  | 75 to 100% | B (B = ≥50-<75%) |  |

From patent US10590129B2 (Incozen Therapeutics Pvt. Ltd., priority 2010, dated 2020)
